Series [1] can be described thus: Cmax in CD1 mouse plasma assessed as baloxavir acid level at 15 mg/kg, po administered as single dose by LC-MS/MS analysis. It is filed as ADME, organism-based. As to conditions: in vivo. More on the design: dose 15 mg/kg, route oral.
Series [2] in a line: MRTlast in CD1 mouse plasma assessed as baloxavir acid level at 15 mg/kg, po administered as single dose measured up to 24 hrs by LC-MS/MS analysis. Format: ADME, organism-based. Conditions: in vivo.
The nature of series [3]: Elimination rate constant in CD1 mouse blood assessed as baloxavir acid level at 15 mg/kg, po administered as single dose measured up to 24 hrs by LC-MS/MS analysis. It is filed as ADME, organism-based. Conditions: in vivo.
Series [4] is described as follows: Tmax in CD1 mouse liver assessed as baloxavir acid level at 15 mg/kg, po administered as single dose measured up to 24 hrs by LC-MS/MS analysis. It is filed as ADME, organism-based. As to conditions: in vivo.
The nature of series [5]: Ratio of AUClast in CD1 mouse liver to plasma assessed as baloxavir acid level at 15 mg/kg, po administered as single dose measured up to 24 hrs by LC-MS/MS analysis. Conditions: other tissue. It is filed as ADME, organism-based.
A short description of series [6]: Half life in CD1 mouse kidney assessed as baloxavir acid level at 15 mg/kg, po administered as single dose measured up to 24 hrs by LC-MS/MS analysis. As to conditions: in vivo. Format: ADME, organism-based.
Series [7] in a line: AUClast in CD1 mouse kidney assessed as baloxavir acid level at 15 mg/kg, po administered as single dose measured up to 24 hrs by LC-MS/MS analysis. Format: ADME, organism-based. Conditions: in vivo.
The nature of series [8]: Ratio of AUClast in CD1 mouse small intestine to plasma assessed as baloxavir acid level at 15 mg/kg, po administered as single dose measured up to 24 hrs by LC-MS/MS analysis. It is filed as ADME, organism-based. Conditions: other tissue.
Series [9] can be described thus: Tmax in CD1 mouse brain assessed as baloxavir acid level at 15 mg/kg, po administered as single dose measured up to 24 hrs by LC-MS/MS analysis. It is filed as ADME, organism-based. Conditions: in vivo.
The nature of series [10]: AUClast in CD1 mouse brain assessed as baloxavir acid level at 15 mg/kg, po administered as single dose measured up to 24 hrs by LC-MS/MS analysis. It is filed as ADME, organism-based. As to conditions: in vivo.
A short description of series [11]: Ratio of AUClast in CD1 mouse brain to plasma assessed as baloxavir acid level at 15 mg/kg, po administered as single dose measured up to 24 hrs by LC-MS/MS analysis. Format: ADME, organism-based.
Series [12] is described as follows: Selectivity ratio of CC50 for human HepG2 cells assessed as reduction in cell viability measured after 24 hrs in presence of glucose to CC50 for human HepG2 cells assessed as reduction in cell viability measured after 24 hrs in presence of galactose. Format: cell-based.
Series [13] in a line: Acute toxicity in CD1 mouse assessed as effect on spleen at 2000 mg/kg, po measured after 2 weeks by macroscopic analysis. It is filed as organism-based. Conditions: in vivo, 336 h.
Series [14] in a line: AUClast in CD1 mouse plasma assessed as (12aR)-12-(Diphenylmethyl)-7-hydroxy-3,4,12,12a-tetrahydro-1H-[1,4]oxazino[3,4-c]pyrido[2,1-f ][1,2,4]triazine-6,8-dione level at 15 mg/kg, po administered as single dose by LC-MS/MS analysis. It is filed as ADME, organism-based. The arrangement: dose 15 mg/kg, time 0 - last, route oral. As to conditions: in vivo.
A short description of series [15]: Ratio of AUClast in CD1 mouse lung to plasma assessed as (12aR)-12-(Diphenylmethyl)-7-hydroxy-3,4,12,12a-tetrahydro-1H-[1,4]oxazino[3,4-c]pyrido[2,1-f ][1,2,4]triazine-6,8-dione level at 15 mg/kg, po administered as single dose by LC-MS/MS analysis. It is filed as ADME, organism-based. As to conditions: other tissue.
Series [16] is described as follows: AUClast in CD1 mouse liver assessed as (12aR)-12-(Diphenylmethyl)-7-hydroxy-3,4,12,12a-tetrahydro-1H-[1,4]oxazino[3,4-c]pyrido[2,1-f ][1,2,4]triazine-6,8-dione level at 15 mg/kg, po administered as single dose measured up to 24 hrs by LC-MS/MS analysis. As to conditions: in vivo. Format: ADME, organism-based.
A short description of series [17]: Tmax in CD1 mouse kidney assessed as (12aR)-12-(Diphenylmethyl)-7-hydroxy-3,4,12,12a-tetrahydro-1H-[1,4]oxazino[3,4-c]pyrido[2,1-f ][1,2,4]triazine-6,8-dione level at 15 mg/kg, po administered as single dose measured up to 24 hrs by LC-MS/MS analysis. Conditions: in vivo. It is filed as ADME, organism-based.
The nature of series [18]: AUClast in CD1 mouse kidney assessed as (12aR)-12-(Diphenylmethyl)-7-hydroxy-3,4,12,12a-tetrahydro-1H-[1,4]oxazino[3,4-c]pyrido[2,1-f ][1,2,4]triazine-6,8-dione level at 15 mg/kg, po administered as single dose measured up to 24 hrs by LC-MS/MS analysis. It is filed as ADME, organism-based. Conditions: in vivo.
Series [19] can be described thus: AUClast in CD1 mouse heart assessed as (12aR)-12-(Diphenylmethyl)-7-hydroxy-3,4,12,12a-tetrahydro-1H-[1,4]oxazino[3,4-c]pyrido[2,1-f ][1,2,4]triazine-6,8-dione level at 15 mg/kg, po administered as single dose measured up to 24 hrs by LC-MS/MS analysis. It is filed as ADME, organism-based. As to conditions: in vivo.
The nature of series [20]: Half life in CD1 mouse lung assessed as (12aR)-12-(Diphenylmethyl)-7-hydroxy-3,4,12,12a-tetrahydro-1H-[1,4]oxazino[3,4-c]pyrido[2,1-f ][1,2,4]triazine-6,8-dione level at 15 mg/kg, po administered as single dose measured up to 24 hrs by LC-MS/MS analysis. Format: ADME, organism-based. As to conditions: in vivo.
Series [21] can be described thus: Tmax in CD1 mouse lung assessed as (12aR)-12-(Diphenylmethyl)-7-hydroxy-3,4,12,12a-tetrahydro-1H-[1,4]oxazino[3,4-c]pyrido[2,1-f ][1,2,4]triazine-6,8-dione level at 15 mg/kg, po administered as single dose measured up to 24 hrs by LC-MS/MS analysis. It is filed as ADME, organism-based. Conditions: in vivo.
The nature of series [22]: MRTlast in CD1 mouse lung assessed as (12aR)-12-(Diphenylmethyl)-7-hydroxy-3,4,12,12a-tetrahydro-1H-[1,4]oxazino[3,4-c]pyrido[2,1-f ][1,2,4]triazine-6,8-dione level at 15 mg/kg, po administered as single dose measured up to 24 hrs by LC-MS/MS analysis. It is filed as ADME, organism-based. As to conditions: in vivo.
Series [23] in a line: AUCinfinity in CD1 mouse small intestine assessed as (12aR)-12-(Diphenylmethyl)-7-hydroxy-3,4,12,12a-tetrahydro-1H-[1,4]oxazino[3,4-c]pyrido[2,1-f ][1,2,4]triazine-6,8-dione level at 15 mg/kg, po administered as single dose measured up to 24 hrs by LC-MS/MS analysis. Format: ADME, organism-based. As to conditions: in vivo. The arrangement: dose 15 mg/kg, route oral, time infinity.

A short description of series [24]: Tmax in CD1 mouse brain assessed as (12aR)-12-(Diphenylmethyl)-7-hydroxy-3,4,12,12a-tetrahydro-1H-[1,4]oxazino[3,4-c]pyrido[2,1-f ][1,2,4]triazine-6,8-dione level at 15 mg/kg, po administered as single dose measured up to 24 hrs by LC-MS/MS analysis. It is filed as ADME, organism-based. As to conditions: in vivo.
The nature of series [25]: AUCinfinity in CD1 mouse muscle assessed as (12aR)-12-(Diphenylmethyl)-7-hydroxy-3,4,12,12a-tetrahydro-1H-[1,4]oxazino[3,4-c]pyrido[2,1-f ][1,2,4]triazine-6,8-dione level at 15 mg/kg, po administered as single dose measured up to 24 hrs by LC-MS/MS analysis. It is filed as ADME, organism-based, Muscle tissue. The arrangement: dose 15 mg/kg, route oral, time infinity. Conditions: in vivo.

Series [26] can be described thus: Stability in human plasma assessed as parent compound remaining at 1 uM measured after 4 hrs by LC-MS/MS analysis. It is filed as ADME, cell-free. As to conditions: read-out: Stability.

As a reminder, the Cmax is the highest concentration seen after dosing. By Tmax is commonly meant the time at which the peak concentration occurs.

Take `COC(=O)OCOc1c2n(ccc1=O)N([C@@H]1c3ccccc3SCc3c1ccc(F)c3F)[C@@H]1COCCN1C2=O` [BALOXAVIR MARBOXIL]: in [1], the Cmax stood at 141 ng/mL. Further, the MRTlast in [2] came to 2.57 h. The Kel in [3] was 0.21 h⁻¹. Also, the time of peak concentration (Tmax) in series [4] and in series [9] was 2 h in each case. Besides, the “Ratio AUC” value is 189 in series [5], 234 in [8] and 0.7 in series [11]. Moreover, the t1/2 in [6] worked out at 3.26 h. Further, the AUClast in [7] turned out to be 21162 ng·h/g; in series [10] it was 317 ng·h/g.
Consider `COC(=O)OCOc1c2n(ccc1=O)N(C(c1ccccc1)c1ccccc1)[C@@H]1COCCN1C2=O`, for which the selectivity ratio at 24 h in series [12] worked out at 0.9. The Activity entry in series [13] is “Non-Toxic”. For the same molecule, the AUClast was determined as 3935 ng·h/mL in series [14], 34818 ng·h/g in [16], 18065 ng·h/g in series [18] and 11111 ng·h/g in series [19]. Further, in series [15], the “Ratio AUC” value came out at 3. The Tmax in series [17], in series [21] and in [24] was 0.5 h throughout. In addition, the t1/2 in series [20] was found to be 1.57 h. The MRTlast in series [22] amounted to 1.7 h. For the same molecule, the figures for the AUC in series [23] and in series [25] were 44252 ng·h/g and 7693 ng·h/g, respectively. For the same molecule, the remaining at 4 h, 1 µM in series [26] was determined as 8.1%.

For the origin of these results see ChEMBL document CHEMBL4622979, “Non-rigid Diarylmethyl Analogs of Baloxavir as Cap-Dependent Endonuclease Inhibitors of Influenza Viruses” (J Med Chem, 2020).
